Our source for the Papp A→B, efflux ratio and half-life values is patent publication US11155539B2, “4-pyridinylmethyl-morpholine derivatives and the use thereof as medicament” (Boehringer Ingelheim International GmbH, priority 2018, dated 2021).

Some results are limits rather than exact numbers.

One series has as its target T1, MDR1 (P-gp) (Homo sapiens, UniProt P08183).
T1 construct: expressed in transfected cells; host or cells: MDCKII (Madin-Darby canine kidney)
The experiment in a line: MDCK assay P-gp (permeability across MDCK-MDR1 monolayers). In kind it is in vitro ADME. To be noted: for Papp A→B at 2 h: apical-to-basal, MDCK-MDR1 monolayers, pH 7.4; for efflux ratio at 2 h: pH 7.4, Papp (b-a) divided by Papp (a-b), MDCK-MDR1, read-out: efflux ratio PEBA/PEAB. Here is the method: The MDCK assays provide information on the potential of a compound to pass the blood brain barrier. Permeability measurements across polarized, confluent MDCK-MDR1 cell monolayers grown on permeable filter supports are used as an in vitro absorption model: apparent permeability coefficients (PE) of the compounds across the MDCK-MDR1 cell monolayers are measured (pH 7.4, 37° C.) in apical-to-basal (AB) and basal-to-apical (BA) transport direction. The AB permeability (PEAB) represents drug absorption from the blood into the brain and the BA permeability (PEBA) drug efflux from the brain back into the blood via both, passive permeability as well as active transport mechanisms mediated by efflux and uptake transporters that are expressed on the MDCK-MDR1 cells, predominantly by the overexpressed human MDR1. Identical or similar permeabilities in both transport directions indicate passive permeation (PEBA/PEAB≤1), vectorial permeability points to additional active transport mechanisms. Higher PEBA than PEAB (PEBA/PEAB>5) indicates the involvement of active efflux mediated by MDR1, which might compromise the goal to achieve sufficient brain exposure. Therefore, this assay provides valuable support for selection of compounds applicable for further in vivo testing. High permeability not limited by efflux at the blood brain barrier is a favorable characteristic for compounds that are to be used for drugs acting primarily in the CNS.
Apparent permeability coefficients (Papp) of the compounds across the MDCK-MDR1 monolayers (MDCKII cells transfected with human MDR1 cDNA expression plasmid) are measured in apical-to-basal (AB) and basal-to-apical (BA) direction. MDCK-MDR1 cells (6×10^5 cells/cm^2) are seeded on filter inserts (Corning, Transwell, polycarbonate, 0.4 μm pore size) and cultured for 9 to 10 days. Compounds dissolved in DMSO stock solution (1-20 mM) are diluted with HTP-4 aqueous buffer (128.13 mM NaCl, 5.36 mM KCl, 1 mM MgSO4, 1.8 mM CaCl2, 4.17 mM NaHCO3, 1.19 mM Na2HPO4, 0.41 mM NaH2PO4, 15 mM HEPES, 20 mM glucose, pH 7.4) supplemented with 0.25% BSA to prepare the transport solutions (final concentration: 1 or 10 μM, final DMSO<=0.5%). The transport solution is applied to the apical or basolateral donor side for measuring A-B or B-A permeability, respectively. The receiver side contains HTP-4 buffer supplemented with 0.25% BSA. Samples are collected at the start and end of experiment from the donor and at various time intervals for up to 2 hours also from the receiver side for concentration measurement by HPLC-MS/MS (RapidFire High-throughput MS System (Agilent) coupled to QTrap 6500 (AB Sciex) or TSQ Vantage (Thermo Scientific)). Sampled receiver volumes are replaced with fresh receiver solution. Efflux ratio is calculated dividing the Papp (b-a) values by the Papp (a-b) values.

The nature of series [1]: Metabolic stability in pooled human liver microsomes. To be noted: pH 7.6, 1 μM compound, 37° C., NADPH, read-out: Half-life - t½ human liver microsomes. In kind it is in vitro ADME. The text has this: Stability in human liver microsomes refers to the susceptibility of compounds to biotransformation in the context of selecting and/or designing drugs with favorable pharmacokinetic properties. The primary site of metabolism for many drugs is the liver. Human liver microsomes contain the cytochrome P450s (CYPs), and thus represent a model system for studying drug metabolism in vitro Enhanced stability in human liver microsomes is associated with several advantages, including increased bioavailability and adequate half-life, which can enable lower and less frequent dosing of patients. Thus, enhanced stability in human liver microsomes is a favorable characteristic for compounds that are to be used for drugs.
The metabolic degradation of the test compound was assayed at 37° C. with pooled human liver microsomes. The final incubation volume of 60 μl per time point contains TRIS buffer pH 7.6 at room temperature (0.1 M), magnesium chloride (5 mM aqueous solution), microsomal protein (1 mg/mL for human) and the test compound at a final concentration of 1 μM. Following a short preincubation period at 37° C., the reactions were initiated by addition of betanicotinamide adenine dinucleotide phosphate, reduced form (NADPH, 1 mM), and terminated by transferring an aliquot into acetonitril after different time points. After centrifugation (10000 g, 5 min), an aliquot of the supernatant was assayed by HPLC-MS/MS as described above for the MDCK assay P-gp for the amount of parent compound. The half-life was determined by the slope of the semi-logarithmic plot of the concentration-time profile.

T1 sequence (P08183 whole entry): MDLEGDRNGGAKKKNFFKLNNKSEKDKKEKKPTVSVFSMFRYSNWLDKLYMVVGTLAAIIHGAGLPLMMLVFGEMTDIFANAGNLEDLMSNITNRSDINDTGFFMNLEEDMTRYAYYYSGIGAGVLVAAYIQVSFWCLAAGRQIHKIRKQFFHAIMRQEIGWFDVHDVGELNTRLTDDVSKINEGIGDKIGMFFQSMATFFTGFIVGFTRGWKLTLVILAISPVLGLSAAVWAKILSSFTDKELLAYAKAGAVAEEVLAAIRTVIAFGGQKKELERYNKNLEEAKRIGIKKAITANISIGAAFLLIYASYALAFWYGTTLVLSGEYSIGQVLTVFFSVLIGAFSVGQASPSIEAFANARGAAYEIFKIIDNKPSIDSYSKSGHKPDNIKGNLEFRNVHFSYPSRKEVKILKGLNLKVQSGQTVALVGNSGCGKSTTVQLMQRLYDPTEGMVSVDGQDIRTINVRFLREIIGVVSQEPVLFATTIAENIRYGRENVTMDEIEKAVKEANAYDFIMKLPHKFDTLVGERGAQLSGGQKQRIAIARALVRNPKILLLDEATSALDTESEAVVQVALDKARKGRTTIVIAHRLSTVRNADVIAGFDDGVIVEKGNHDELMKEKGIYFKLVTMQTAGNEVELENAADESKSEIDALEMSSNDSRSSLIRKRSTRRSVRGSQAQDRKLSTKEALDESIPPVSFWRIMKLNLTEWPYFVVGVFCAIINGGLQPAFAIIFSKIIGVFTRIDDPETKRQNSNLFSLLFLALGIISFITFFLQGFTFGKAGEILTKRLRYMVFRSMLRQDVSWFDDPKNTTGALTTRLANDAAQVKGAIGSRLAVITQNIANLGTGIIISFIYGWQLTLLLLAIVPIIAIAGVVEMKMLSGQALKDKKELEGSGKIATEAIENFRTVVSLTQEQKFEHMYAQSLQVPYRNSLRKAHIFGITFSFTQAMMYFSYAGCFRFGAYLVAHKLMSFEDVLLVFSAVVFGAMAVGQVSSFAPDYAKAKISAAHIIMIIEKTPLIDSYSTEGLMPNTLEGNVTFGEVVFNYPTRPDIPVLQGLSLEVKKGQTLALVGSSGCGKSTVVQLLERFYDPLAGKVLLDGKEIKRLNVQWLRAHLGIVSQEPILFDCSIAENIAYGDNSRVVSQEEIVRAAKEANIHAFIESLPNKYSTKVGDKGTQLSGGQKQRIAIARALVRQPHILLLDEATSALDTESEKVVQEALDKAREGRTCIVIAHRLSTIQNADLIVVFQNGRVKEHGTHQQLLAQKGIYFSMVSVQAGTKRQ

Turning to `CNC(=O)[C@@H]1CN(Cc2ccc(Oc3ccc(F)cc3)cn2)CCO1` [Example 30], on MDR1 (P-gp), the apparent permeability from apical to basolateral (Papp A→B) at 2 h came to 86 ×10⁻⁶ cm/s and the efflux ratio at 2 h came to 0.5. The half-life at 1 μM in series [1] is more than 2.17 h.

For the compound `CNC(=O)[C@@H]1CN(Cc2ccc(Oc3ccccc3Cl)nc2)CCO1` [Example 17], on MDR1 (P-gp), the Papp A→B at 2 h was 67 ×10⁻⁶ cm/s and the efflux ratio at 2 h came out at 0.6. Also, the half-life at 1 μM in series [1] was more than 2.17 h.

With `CNC(=O)[C@@H]1CN(Cc2ccc(Oc3ccc(C)cc3)nc2)CCO1` [Example 29], at MDR1 (P-gp), the Papp A→B at 2 h worked out at 58 ×10⁻⁶ cm/s and the efflux ratio at 2 h is 0.8. In addition, the half-life at 1 μM in series [1] was more than 2.17 h.

With `CNC(=O)[C@@H]1CN(Cc2ccc(Oc3ccccc3F)nc2)CCO1` [Example 19], on MDR1 (P-gp), the Papp A→B at 2 h is 75 ×10⁻⁶ cm/s and the efflux ratio at 2 h came to 0.7. For the same compound, in series [1], the half-life at 1 μM was more than 2.17 h.
